For data set [1] the following is noted: Liquid; for mass density: 293.15 K, 101.33 kPa; for Normal boiling temperature: Fischer boiling point apparatus.
Data set [2] can be described thus: refractive index (Na D-line) (dimensionless). The note with it: 298.15 K; 101.33 kPa; Liquid; Standard Abbe refractometry.

Numbers after ± are expanded uncertainties.

As a reminder, the mass density is the mass of a sample divided by its volume. By refractive index is commonly meant a measure of how strongly the sample bends light. Turning to `CC(=O)O` [acetic acid], in data set [1], the mass density is 1049.42 ± 0.29 kg/m3 and the Normal boiling temperature was 118.1 ± 0.2 °C. The refractive index in data set [2] turned out to be 1.3713 ± 0.0007.
On the same counts, the results for `COC(=O)CCCCC(=O)OC` [dimethyl 1,6-hexanedioate] are 1061.9 ± 0.61 kg/m3, 225.1 ± 0.2 °C and 1.4215 ± 0.0012.
As for `O` [water], the refractive index in data set [2] was 1.3324 ± 0.0007.

These data come from the NIST ThermoML archive (doi:10.1016/j.fluid.2004.11.025).
